Ends that are not written are not given here.
How the values were obtained:
B. thuringiensis = type: cell-based, Bacillus thuringiensis
Description: (§1) Staphylococcus aureus CMCC(B) 26003, B. thuringiensis, E. coli, and P. aeruginosa CMCC(B)10104 were cultured in NA medium and C. albicans CMCC(F) 98001 was cultured in SDA medium. They were incubated in a constant-temperature (bacteria: 37°C; fungi: 28°C) incubator for 16–20 h. Thereafter, single colonies were picked and incubated in 50 mL MHB at 160 rpm/min at the optimal growth temperature (bacteria: 37°C; fungi: 28°C). Microbial suspensions of 1 × 10^6 CFU/mL were then prepared ([Chen et al., 2016]).
(§2) The MIC values of five candidate peptides (FD4, FD10, FD12, FD14, and FD15), which were selected based on physicochemical properties and antimicrobial effects (determined by the agar punch method), were evaluated using a micro-broth dilution method ([Zhou and Zhou, 2018]). Serial two-fold dilutions of the candidate peptides were prepared in 96-well plates containing the same microbial inoculum (E. coli, P. aeruginosa CMCC(B)10104, B. thuringiensis, S. aureus CMCC(B) 26003, or C. albicans CMCC(F) 98001). The plates were incubated (bacteria: 37°C; fungi: 28°C) for 16–18 h. Ampicillin was used as the positive control. The MIC was defined as the lowest peptide concentration where no visible growth occurred ([Diao et al., 2014]). The experiment was conducted in triplicate.

E. coli [1] = type: cell-based, Escherichia coli
Description: as §1, §2

[2] = tested on: P. aeruginosa CMCC(B)10104; type: cell-based, Pseudomonas aeruginosa; conditions: CMCC(B)10104
Description: as §1, §2

S. aureus CMCC(B) 26003 [3] = type: cell-based, Staphylococcus aureus; conditions: CMCC(B) 26003
Description: as §1, §2

S. aureus CMCC(B) 26003 [4] = type: cell-based, Staphylococcus aureus; conditions: CMCC(B) 26003; remark: listed apart in the source
Description: (§3) E. coli and S. aureus CMCC(B) 26003 (1 × 10^6 CFU/mL) were incubated in MHB with various final physiological concentrations of serum salts (150 mM NaCl, 4.5 mM KCl, 1 mM MgCl2, and […]). 50 μL of these E. coli or S. aureus CMCC(B) 26003 suspensions and 50 μL of AMP (serially diluted two-fold to a final concentration of 256 μg/mL) were added to a 96-well plate and incubated at 37°C for 16–18 h ([Chou et al., 2016]). The MIC values were then determined. The experiment was conducted in triplicate.

E. coli [5] = type: cell-based, Escherichia coli; remark: listed apart in the source
Description: as §3

[6] = tested on: C. albicans CMCC(F) 98001; type: cell-based, Candida albicans; conditions: CMCC(F) 98001
Description: as §1, §2

Sequence	MIC (μg/mL) B. thuringiensis (B. thuringiensis) [µg/mL]	MIC (μg/mL) E. coli (E. coli [1]) [µg/mL]	MIC (μg/mL) P. aeruginosa CMCC(B)10104 [2] [µg/mL]	MIC (μg/mL) S. aureus CMCC(B) 26003 (S. aureus CMCC(B) 26003 [3]) [µg/mL]	MIC, Control (S. aureus CMCC(B) 26003 [4]) [µg/mL]	MIC, FeCl3 (S. aureus CMCC(B) 26003 [4]) [µg/mL]	MIC, KCl (S. aureus CMCC(B) 26003 [4]) [µg/mL]	MIC, MgCl2 (S. aureus CMCC(B) 26003 [4]) [µg/mL]	MIC, NaCl (S. aureus CMCC(B) 26003 [4]) [µg/mL]	MIC, Control (E. coli [5]) [µg/mL]	MIC, FeCl3 (E. coli [5]) [µg/mL]	MIC, KCl (E. coli [5]) [µg/mL]	MIC, MgCl2 (E. coli [5]) [µg/mL]	MIC, NaCl (E. coli [5]) [µg/mL]	MIC (μg/mL) C. albicans CMCC(F) 98001 [6] [µg/mL]
ANWKKVIR [FD14]	256	256	256												
VFRLKKWIQKVI [FD10]	8	8	8	16	16	16	8	32	32	8	4	4	16	16	16

Source: PMC10060639, “Prediction and bioactivity of small-molecule antimicrobial peptides from Protaetia brevitarsis Lewis larvae” (Frontiers in Microbiology, 2023)
